What is called IC50 is the concentration that gives 50% inhibition.

The experiment concerns the target T1, human CCR6 (Homo sapiens, UniProt P51684).
T1 construct: expressed in transfected cells; host or cells: HEK-293
T1 sequence (P51684 1-374): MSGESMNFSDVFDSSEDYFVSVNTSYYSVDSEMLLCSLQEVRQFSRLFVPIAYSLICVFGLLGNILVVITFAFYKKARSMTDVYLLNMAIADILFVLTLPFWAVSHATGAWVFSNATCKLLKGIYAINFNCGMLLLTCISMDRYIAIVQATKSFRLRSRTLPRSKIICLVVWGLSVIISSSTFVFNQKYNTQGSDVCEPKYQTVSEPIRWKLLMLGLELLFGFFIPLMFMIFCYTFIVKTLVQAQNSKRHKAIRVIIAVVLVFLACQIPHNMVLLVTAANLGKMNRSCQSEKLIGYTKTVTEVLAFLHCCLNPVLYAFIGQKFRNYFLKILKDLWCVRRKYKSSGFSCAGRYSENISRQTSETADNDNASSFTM
Briefly: FLIPR assay (inhibition of CCL20-induced calcium signal). As to conditions: HEK-293 cells expressing human CCR6; mean values where determined several times; read-out: FLIPR IC50. In kind it is cell-based. Summed up:
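IC50 values come from baseline-corrected peak calcium fluorescence after agonist. The agonist was CCL20 at 10 nM final, added to engineered human CCR6 HEK-293 cells following a 30-min, room-temperature, dark preincubation with serially diluted compound. Readings were taken in a fluorometric imaging plate reader.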
On to `Cc1cc(C(C)(O)C#Cc2cncc([C@@](O)(c3ccc(C(C)C)cc3)C3(C)CN(C)C3)c2)on1` (stereo partly drawn) [Example 648], for which the IC50 is 46.6 nM.

On to `CC(C)c1ccc([C@](O)(c2cncc(C#CC(C)(O)c3nccn3C)c2)C2(C)CN(C)C2)cc1` (stereo partly drawn) [Example 649], for which the IC50 amounted to 185 nM. Regarding `Cc1ccc(C(C)(O)C#Cc2cncc([C@@](O)(c3ccc(C(C)C)cc3)C3(C)CN(C)C3)c2)s1` (stereo partly drawn) [Example 650], the IC50 was 15.9 nM. Regarding `CC(C)c1ccc([C@](O)(c2cncc(C#CC(C)(O)c3cccn3C)c2)C2(C)CN(C)C2)cc1` (stereo partly drawn) [Example 651], the concentration for half-maximal inhibition (IC50) turned out to be 16.1 nM. In the case of `Cc1cccc(C(C)(O)C#Cc2cncc([C@@](O)(c3ccc(C4(C(F)(F)F)CC4)cc3)C3(C)CN(C)C3)c2)n1` (stereo partly drawn) [Example 654], the 50% inhibitory concentration (IC50) came out at 46.2 nM. For the compound `Cc1cccc(C(C)(O)C#Cc2cncc([C@@](O)(c3ccc(C4(C)CC4)cc3)C3(C)CN(C)C3)c2)n1` (stereo partly drawn) [Example 655], the 50% inhibitory concentration (IC50) is 55 nM. Take `Cc1cccc(C(C)(O)C#Cc2cncc([C@@](O)(c3ccc(C(F)(F)F)cc3)C3(C)CN(C)C3)c2)n1` (stereo partly drawn) [Example 656]: the IC50 was 208 nM. For the compound `CCc1ccc([C@](O)(c2cncc(C#CC(C)(O)c3cccc(C)n3)c2)C2(C)CN(C)C2)cc1` (stereo partly drawn) [Example 657], the 50% inhibitory concentration (IC50) turned out to be 86.6 nM. With `Cc1cccc(C(C)(O)C#Cc2cncc([C@@](O)(c3ccc(C(C)(C)C)cc3)C3(C)CN(C)C3)c2)n1` (stereo partly drawn) [Example 658] the figure was 86.6 nM; with `CCC1([C@](O)(c2ccc(OC(F)(F)F)cc2)c2cncc(C#CC(C)(O)c3cccc(C)n3)c2)CN(C)C1` (stereo partly drawn) [Example 659], 344 nM. Regarding `Cc1cccc(C(C)(O)C#Cc2cncc([C@@](O)(c3ccc(CC(F)(F)F)cc3)C3(C)CN(C)C3)c2)n1` (stereo partly drawn) [Example 660], the half-inhibitory concentration (IC50) was 82.4 nM. With `Cc1cccc(C(C)(O)C#Cc2cncc([C@@](O)(c3ccc(C(C)C)cc3)C3(F)CN(C)C3)c2)n1` (stereo partly drawn) [Example 661] the figure was 54.3 nM.

For `CC(=O)N1CCC(C#Cc2cc([C@@](O)(c3ccc(C(C)C)cc3)C3(C)CN(C)C3)cnn2)CC1` [Example 662], the 50% inhibitory concentration (IC50) worked out at 331 nM. With `CC(=O)NC(C)(C)C#Cc1cc([C@@](O)(c2ccc(C(C)C)cc2)C2(C)CN(C)C2)cnn1` [Example 663] the figure was 992 nM. On to `CC(C)c1ccc([C@](O)(c2cnnc(C#CC(C)(C)N3CCCC3=O)c2)C2(C)CN(C)C2)cc1` [Example 664], for which the IC50 amounted to 211 nM. With `Cc1cccc(C(C)(O)C#Cc2cncc([C@@](O)(c3ccc(C(C)C)cc3)C3(C)CN(C(C)C)C3)c2)n1` (stereo partly drawn) [Example 665], the IC50 was 40.4 nM. As for `Cc1cccc(C(C)(O)C#Cc2cncc([C@@](O)(c3ccc(C(C)C)cc3)C3(C)CN(CCO)C3)c2)n1` (stereo partly drawn) [Example 667], the half-inhibitory concentration (IC50) is 52.4 nM. Consider `Cc1cccc(C(C)(O)C#Cc2cncc([C@@](O)(c3ccc(C(C)C)cc3)C3(C)CN(CC(F)F)C3)c2)n1` (stereo partly drawn) [Example 668], for which the half-inhibitory concentration (IC50) worked out at 101 nM. As to `CC(=O)N1CCC(COc2cncc([C@@](O)(c3ccc(C(C)C)cc3)C3(C)CN(C)C3)c2)CC1` [Example 669, 1-(4-{5-[(R)-(1,3-Dimethyl-azetidin-3-yl)-hydroxy-(4-isopropyl-phenyl)-methyl]-pyridin-3-yloxymethyl}-piperidin-1-yl)-ethanone], the IC50 amounted to 62.1 nM.

Turning to `Cc1cccc(C(C)(O)C#Cc2cncc([C@@](O)(c3ccc(C(C)C)cc3)C3(C)CN(C4CC4)C3)c2)n1` (stereo partly drawn) [Example 670, 4-{5-[(R)-(1-Cyclopropyl-3-methyl-azetidin-3-yl)-hydroxy-(4-isopropyl-phenyl)-methyl]-pyridin-3-yl}-2-(6-methyl-pyridin-2-yl)-but-3-yn-2-ol], the IC50 is 42.8 nM. `Cc1ncc(C2CC(=O)N(c3cncc([C@@](O)(c4ccc(C(C)C)cc4)C4(C)CN(C)C4)c3)C2)s1` (stereo partly drawn) [Example 672]: the IC50 is 172 nM. Take `Cc1ccc(C2CC(=O)N(c3cncc([C@@](O)(c4ccc(C(C)C)cc4)C4(C)CN(C)C4)c3)C2)cn1` (stereo partly drawn) [Example 673]: the IC50 turned out to be 199 nM. With `CC(C)c1ccc([C@](O)(c2cncc(N3CC(c4cccc(C(C)C)n4)CC3=O)c2)C2(C)CN(C)C2)cc1` (stereo partly drawn) [Example 674], the 50% inhibitory concentration (IC50) came to 25.9 nM. To `CC(C)c1ccc([C@](O)(c2cncc(N3CC(c4ccc(C(F)(F)F)nc4)CC3=O)c2)C2(C)CN(C)C2)cc1` (stereo partly drawn) [Example 675] belongs 227 nM. Turning to `CC(C)c1ccc([C@](O)(c2cncc(N3CC(c4cnn(C)c4)CC3=O)c2)C2(C)CN(C)C2)cc1` (stereo partly drawn) [Example 676], the half-maximal inhibitory concentration (IC50) turned out to be 108 nM. As to `CC(C)c1ccc([C@](O)(c2cncc(N3CC(c4cnn(C(F)F)c4)CC3=O)c2)C2(C)CN(C)C2)cc1` (stereo partly drawn) [Example 678], the concentration for half-maximal inhibition (IC50) is 156 nM.

With `CC(=O)N1CCC(C2CC(=O)N(c3cc([C@@](O)(c4ccc(C(C)C)cc4)C4(C)CN(C)C4)cnn3)C2)CC1` (stereo partly drawn) [Example 680, 4-(1-Acetyl-piperidin-4-yl)-1-{5-[(R)-(1,3-dimethyl-azetidin-3-yl)-hydroxy-(4-isopropyl-phenyl)-methyl]-pyridazin-3-yl}-pyrrolidin-2-one], the IC50 was 428 nM. Regarding `CC(C)c1ccc([C@](O)(c2cnnc(N3CC4OCCC4C3=O)c2)C2(C)CN(C)C2)cc1` (stereo partly drawn) [Example 681, 5-{5-[(R)-(1,3-Dimethyl-azetidin-3-yl)-hydroxy-(4-isopropyl-phenyl)-methyl]-pyridazin-3-yl}-hexahydro-furo[2,3-c]pyrrol-4-one], the IC50 worked out at 281 nM.

Consider `CC(C)c1ccc([C@](O)(c2cnnc(N3CC(c4cccc(C(C)C)n4)CC3=O)c2)C2(C)CN(C)C2)cc1` (stereo partly drawn) [Example 682, 1-{5-[(R)-(1,3-Dimethyl-azetidin-3-yl)-hydroxy-(4-isopropyl-phenyl)-methyl]-pyridazin-3-yl}-4-(6-isopropyl-pyridin-2-yl)-pyrrolidin-2-one], for which the IC50 is 7.98 nM. With `CC(=O)N1CCc2nc(-c3cncc([C@@](O)(c4ccc(C(C)C)cc4)C4(C)CN(C)C4)c3)ncc2C1` [Example 683, 1-(2-{5-[(R)-(1,3-Dimethyl-azetidin-3-yl)-hydroxy-(4-isopropyl-phenyl)-methyl]-pyridin-3-yl}-7,8-dihydro-5H-pyrido[4,3-d]pyrimidin-6-yl)-ethanone] the figure was 105 nM; with `CC(=O)N1CCc2nc(-c3cncc([C@@](O)(c4ccc(C(C)C)cc4)C4(C)CN(C)C4)c3)ccc2C1` [Example 684, 1-(2-{5-[(R)-(1,3-Dimethyl-azetidin-3-yl)-hydroxy-(4-isopropyl-phenyl)-methyl]-pyridin-3-yl}-7,8-dihydro-5H-[1,6]naphthyridin-6-yl)-ethanone], 125 nM; with `CC(=O)N1CCC(c2cnc(-c3cncc([C@@](O)(c4ccc(C(C)C)cc4)C4(C)CN(C)C4)c3)nc2)CC1` [Example 685, 1-[4-(2-{5-[(R)-(1,3-Dimethyl-azetidin-3-yl)-hydroxy-(4-isopropyl-phenyl)-methyl]-pyridin-3-yl}-pyrimidin-5-yl)-piperidin-1-yl]-ethanone], 242 nM. `CC(=O)N1CCC(c2ccnc(-c3cncc([C@@](O)(c4ccc(C(C)C)cc4)C4(C)CN(C)C4)c3)n2)CC1` [Example 686, 1-[4-(2-{5-[(R)-(1,3-Dimethyl-azetidin-3-yl)-hydroxy-(4-isopropyl-phenyl)-methyl]-pyridin-3-yl}-pyrimidin-4-yl)-piperidin-1-yl]-ethanone]: the IC50 stood at 145 nM.

The values above are taken from patent US12617773B2, “Azetidin-3-ylmethanol derivatives as CCR6 receptor modulators” (Idorsia Pharmaceuticals Ltd, priority 2020, dated 2026).
